Patent US20060074073A1, “Therapeutic combinations comprising poly (ADP-ribose) polymerases inhibitor” (AGOURON PHARMACEUTICALS, INC., priority 2004, published 2006)

Key:
PARP [1] = experiment: PARP activity in peripheral blood lymphocytes of patients (monoclonal antibody assay); type: in vivo, human
Experimental: Whole blood was collected into EDTA vacutainers and human PBLs were obtained by lymphopreparation according to the manufacturers instructions. Tumour biopsies were collected from the operating theatre in a sterile container and placed immediately on ice. Within 30 minutes tumour samples were snap frozen in liquid nitrogen and stored at −80° C. until homogenised for analysis. The specimen was defrosted on ice and the wet weight documented. For weights over 100 mg the tissue was homogenised using a Pro 2000 instrument (Pro Scientific Inc, Monroe, Conn., USA) in 3 volumes (i.e. 1 mg plus 3 μl isotonic buffer −7 mM Hepes, 26 mM KCl, 0.1 mM dextran, 0.4 mM EGTA, 0.5 mM MgCl2, 45 mM sucrose, pH 7.8), giving a homogenate with an overall dilution of 1 in 4. Where smaller samples had been obtained they were homogenised in 99 or 999 volumes, giving final dilutions of 1 in 100 and 1 in 1000, respectively. The homogenate was kept on ice throughout the process, and homogenisation was performed in 10 second bursts to prevent undue warming of the sample. Unless assayed on the day of homogenisation, samples were re-frozen to −80° C. and stored at this temperature until analysed. Prior to assay the samples were further diluted with isotonic buffer where necessary to give a final dilution of 1 in 1000.
Cultured cells or rapidly defrosted lymphocyte preparations were washed twice in ice cold PBS. The cell pellets were resuspended in 0.15 mg/ml digitonin to a density of approximately 1-2×10^6 cells per ml for 5 minutes to permeabilise the cells, following which 9 volumes of ice-cold buffer (7 mM HEPES, 26 mM KCl, 0.1 mM dextran, 0.4 mM EGTA, 0.5 mM MgCl2, 45 mM sucrose, pH 7.8) were added and the sample placed on ice. The permeabilised (i.e. trypan blue stained) cell density was counted and the cell suspension was diluted if necessary with the above buffer to achieve a cell density that allowed 20,000 permeabilised cells to be added to each reaction tube. In the assay maximally stimulated PARP activity is measured by exposure to a blunt ended oligonucleotide in the presence of NAD^+ substrate, at 26° C. in an oscillating water bath. Five μl of 7 mM NAD^+ and 5 μl 200 μg/ml pallindromic oligonucleotide ([…]) were mixed with permeabilised cells and reaction buffer (100 mM Tris HCl, 120 mM MgCl2, pH 7.8) to a final volume of 100 μl. The reaction was stopped after 6 minutes by the addition of excess PARP inhibitor (400 μl of 12.5 μM Compound I) and the cells blotted onto a nitrocellulose membrane (Hybond N, Amersham) using a 24-well manifold. A purified PAR standard curve was loaded onto each membrane (0-25 pmol monomer equivalent) to allow quantification. Overnight incubation with the primary antibody (1 in 500 in PBS-MT (PBS plus 0.05% Tween 20 Plus 5% Milk powder) at 4° C. was followed by 2 washes in PBS-T (PBS plus 0.05% Tween 20) and then incubation in secondary antibody (1 in 1000 in PBS-MT) for 1 hour at room temperature. The incubated membrane was washed frequently with PBS over the course of one hour then exposed for one minute to ECL reaction solution as supplied by the manufacturer. Chemiluminesence detected during a 5 minute exposure was measured using a Fuji LAS3000 UV Illuminator (Raytek, Sheffield, UK) and digitised using the imaging software (Fuji LAS Image version 1.1, Raytek). The acquired image was analysed using Aida Image Analyser (version 3.28.001), and results expressed in LAU/mm^2. Three background areas on the exposed blot were measured and the mean of the background signal from the membrane subtracted from all results. The PAR polymer standard curve was analysed using an un-weighted one site binding non-linear regression model and unknowns read off the standard curve so generated. Results were then expressed relative to the number of cells loaded. Triplicate QC samples of 5000 L1210 cells were run with each assay, all samples from one patient being analysed on the same blot. […]

PARP [2] = experiment: Inhibition of MNNG-induced cellular NAD depletion and poly-ADP-ribose polymer formation in A549 cells; type: cell-based; conditions: for NAD (% DMSO) / Polymer (% MNNG): MNNG 25 μM
[3] = IV pharmacokinetics, summary over all species; set-up: species or system CD-1 mice, Wistar rats, Beagle dogs, and cynomolgus monkeys; conditions: CD-1 (mouse), Wistar (rat), Beagle (dog), cynomolgus monkey, in vivo, IV dosing
Description: Each of the dose treatment groups was split into 2 cohort groups of 4 mice. The reason for cohort blood sampling is due to the blood volume limitations of the mouse species. Blood was drawn from each cohort every other pharmacokinetic sampling time. […] Three mice per dose group were euthanized at each of the collection time points. […] Blood from each rat was collected for each time point.

LoVo cells = experiment: Inhibition of potentially lethal damage recovery, colony formation; type: cell-based; conditions: 8 Gy + 0.4 μM compound
Description: A contributory factor to radiation resistance in vivo is the ability of quiescent cells to repair potentially lethal damage (PLD) (Weichselbaum, R. R. and Little, J. B. The differential response of human tumors to fractionated radiation may be due to a post-irradiation repair process. Br. J. Cancer 1982; 46: 532-537). In vitro models of PLD measure the increase in survival of irradiated, growth arrested cells following delayed plating for colony formation. Recovery from potentially lethal damage was measured in vitro using LoVo cells that had been arrested in G1 phase by growing to confluence to mimic the radio-resistant quiescent cell population in tumors. Cells were exposed to 8 Gy of γ-irradiation (Gammacel 1000 Elite, Nordian International Inc. Canada), and either harvested and plated for colony formation assay immediately or maintained as growth arrested confluent cultures for a 24-hour recovery period before harvesting and plating for the colony formation assay. Where indicated, 0.4 μM compound Formula 1 was added 30 minutes before irradiation and was present throughout the recovery incubation.

Compound: CNCc1ccc(-c2[nH]c3cc(F)cc4c3c2CCNC4=O)cc1.O=P(O)(O)O [Compound I, phosphate salt of 8-fluoro-2-{4-[(methylamino)methyl]phenyl}-1,3,4,5-tetrahydro-6H-azepino[5,4,3-cd]indol-6-one]
- decrease in median PARP activity (PARP [1]; PBL, all patients regardless of dose, after completion of the 30-minute infusion on Day 1): ≥ 50%
- % Pretreatment PARP Activity, Median (%) (PARP [1]; PBL, cohort 1, Compound I 1 mg/m^2, 4-6 h, after test dose (usually Day −7)): 57%
- % Pretreatment PARP Activity, Median (%) (PARP [1]; PBL, cohort 1, Compound I 1 mg/m^2, 0.5 h, after test dose (usually Day −7)): 18%
- % Pretreatment PARP Activity, Median (%) (PARP [1]; PBL, cohort 1, Compound I 1 mg/m^2, 24 h, after test dose (usually Day −7)): 77%
- % Pretreatment PARP Activity, Median (%) (PARP [1]; PBL, cohort 2, Compound I 2 mg/m^2, 4-6 h, Day 1): 27%
- % Pretreatment PARP Activity, Median (%) (PARP [1]; PBL, cohort 2, Compound I 2 mg/m^2, 0.5 h, Day 1): 10%
- % Pretreatment PARP Activity, Median (%) (PARP [1]; PBL, cohort 2, Compound I 2 mg/m^2, 24 h, Day 1): 36%
- % Pretreatment PARP Activity, Median (%) (PARP [1]; PBL, cohort 3, Compound I 4 mg/m^2, 4-6 h, Day 1): 28%
- % Pretreatment PARP Activity, Median (%) (PARP [1]; PBL, cohort 3, Compound I 4 mg/m^2, 0.5 h, Day 1): 42%
- % Pretreatment PARP Activity, Median (%) (PARP [1]; PBL, cohort 3, Compound I 4 mg/m^2, 24 h, Day 1): 108%
- % Pretreatment PARP Activity, Median (%) (PARP [1]; PBL, cohort 4, Compound I 8 mg/m^2, 4-6 h, Day 1): 16%
- % Pretreatment PARP Activity, Median (%) (PARP [1]; PBL, cohort 4, Compound I 8 mg/m^2, 0.5 h, Day 1): 1%
- % Pretreatment PARP Activity, Median (%) (PARP [1]; PBL, cohort 4, Compound I 8 mg/m^2, 24 h, Day 1): 9%
- % Pretreatment PARP Activity, Median (%) (PARP [1]; PBL, cohort 9, Compound I 18 mg/m^2, 4-6 h, Day 1): 7.5%
- % Pretreatment PARP Activity, Median (%) (PARP [1]; PBL, cohort 9, Compound I 18 mg/m^2, 0.5 h, Day 1): 6%
- % Pretreatment PARP Activity, Median (%) (PARP [1]; PBL, cohort 9, Compound I 18 mg/m^2, 24 h, Day 1): 14%
- median reduction in PARP activity (PARP [1]; PBL, cohorts 4 and 5, 24 hours after Day 1 dose): > 50%
- % Pretreatment PARP Activity, Median (%) (PARP [1]; PBL, cohorts 5-8, Compound I 12 mg/m^2, 4-6 h, Day 1): 13%
- % Pretreatment PARP Activity, Median (%) (PARP [1]; PBL, cohorts 5-8, Compound I 12 mg/m^2, 0.5 h, Day 1): 14.5%
- % Pretreatment PARP Activity, Median (%) (PARP [1]; PBL, cohorts 5-8, Compound I 12 mg/m^2, 24 h, Day 1): 29%
- PARP inhibitory dose (PID) (PARP [1]; patients, PARP activity in peripheral blood lymphocytes <50% of baseline 24 hours after Day 1 dose, with plateau): 12 mg/m^2

Compound: CNCc1ccc(-c2[nH]c3cc(F)cc4c3c2CCNC4=O)cc1 [compound of formula 1, 8-fluoro-2-{4-[(methylamino)methyl]phenyl}-1,3,4,5-tetrahydro-6H-azepino[5,4,3-cd]indol-6-one]
- inhibition of MNNG-induced NAD depletion (PARP [2]; 50 nM): 93%
- inhibition of poly-ADP-ribose polymer formation (PARP [2]; 50 nM): 95%
- NAD (% DMSO) (PARP [2]; compound 0.0005 μM): 77 % DMSO
- Polymer (% MNNG) (PARP [2]; compound 0.0005 μM): 40 % MNNG
- NAD (% DMSO) (PARP [2]; compound 0.005 μM): 95 % DMSO
- Polymer (% MNNG) (PARP [2]; compound 0.005 μM): 11 % MNNG
- NAD (% DMSO) (PARP [2]; compound 0.05 μM): 96 % DMSO
- Polymer (% MNNG) (PARP [2]; compound 0.05 μM): 5 % MNNG
- NAD (% DMSO) (PARP [2]; compound 0.1 μM): 97 % DMSO
- Polymer (% MNNG) (PARP [2]; compound 0.1 μM): 4 % MNNG
- NAD (% DMSO) (PARP [2]; compound 0.4 μM): 97 % DMSO
- Polymer (% MNNG) (PARP [2]; compound 0.4 μM): 4 % MNNG
- inhibition of cellular poly-ADP-ribose formation (PARP [2]; MNNG-induced, 5 nM): 89%
- clearance [3]: 34 to 136 mL/min/kg
- half-life ([3]; read-out: terminal half-life): 2 to 5 h
- Vd ([3]; read-out: volume of distribution): 7 to 15 L/kg
- % PLDR (LoVo cells; 100 × (survival at 24 hr-survival at 0 time)/survival at 0 time): 211 ± 184%
- Survival at 0 time (LoVo cells; G1-arrested): 0.02 ± 0.01
- Survival at 24 hr (LoVo cells; G1-arrested): 0.057 ± 0.038
- inhibition at 0.4 µM (LoVo cells; Homo sapiens, mean of 3 independent experiments, read-out: Inhibition of PLDR): 64.9%
